Source: patent publication US20260191835A1, “COMBINATIONS COMPRISING A MENIN-MLL INHIBITOR AND AT LEAST ONE OTHER THERAPEUTIC AGENT” (JANSSEN PHARMACEUTICA NV, priority 2022, published 2026)

System: MOLM-13 tumors
Test: Efficacy (survival) in disseminated MOLM-13 (KMT2A-rearranged) model in NSG mice
Format: in vivo
Conditions: NSG mice bearing established MOLM-13 tumors, vs vehicle; Azacitidine 2 mg/kg ip QD × 7; Compound 51 2 mg/kg po QD × 28; n = 10
Description: 4) Efficacy of Menin-MLL Inhibitor in Combination with Azacitidine in MOLM-13 (KMT2A-Rearranged) Model in NSG Mice
Compound 51 was formulated in purified pyrogen-free deionized water, pH 4.0 and prepared to reach a total volume of 8 mL/kg. Doses were adjusted by individual body weight each day. Working stocks of Compound 51 were prepared once per week for each study and stored at 25° C.
Female NSG (NOD.Cg-Prkdc^scid Il2rg^tm1Wjl/SzJ) mice were used when they were approximately 6 to 8 weeks of age and weighed approximately 25 g. All animals could acclimate and recover from any shipping-related stress for a minimum of 7 days prior to experimental use. […]
Animals were monitored daily for clinical signs related to either compound toxicity or tumor burden (i.e., hind limb paralysis, lethargy, etc.).
For survival assessment, results were plotted as the percentage survival against days post tumor implant. […] Median survival was determined utilizing Kaplan-Meier survival analysis. The percent increased life span (ILS) was calculated as: ((median survival day of treated group−median survival day of control group)/median survival day of control group)×100. […]
Survival and body weight data were graphically represented utilizing Prism (Version 9). Statistical significance for body weights was evaluated as described above. […]

Compound: CC(=O)N1CCC(CN2CC[C@@H](Cc3cn(-c4ccc(F)cc4C(=O)N(C)C(C)C)c4cncc(C)c34)C2)CC1 [Compound 51]
- % ILS (increased life span): *5%
